Measured values from patent US7196077B2, “Tachykinin antagonists” (Glaxo Group Limited, priority 2001, dated 2007).
Structures can show the parent of a compound that is named as a salt.

The molecules below were run against T1, recombinant human NK1 receptors (Homo sapiens, UniProt P25103) (assay: NK1-receptor binding affinity, displacement of [3H]-substance P). Details: negative logarithm of Ki; displacement of [3H]-substance P from recombinant human NK1 receptors in CHO cell membranes; average of at least two determinations.
T1 construct: expressed in transfected cells; host or cells: Chinese Hamster Ovary (CHO) cells, membrane preparation
T1 sequence (P25103 whole entry): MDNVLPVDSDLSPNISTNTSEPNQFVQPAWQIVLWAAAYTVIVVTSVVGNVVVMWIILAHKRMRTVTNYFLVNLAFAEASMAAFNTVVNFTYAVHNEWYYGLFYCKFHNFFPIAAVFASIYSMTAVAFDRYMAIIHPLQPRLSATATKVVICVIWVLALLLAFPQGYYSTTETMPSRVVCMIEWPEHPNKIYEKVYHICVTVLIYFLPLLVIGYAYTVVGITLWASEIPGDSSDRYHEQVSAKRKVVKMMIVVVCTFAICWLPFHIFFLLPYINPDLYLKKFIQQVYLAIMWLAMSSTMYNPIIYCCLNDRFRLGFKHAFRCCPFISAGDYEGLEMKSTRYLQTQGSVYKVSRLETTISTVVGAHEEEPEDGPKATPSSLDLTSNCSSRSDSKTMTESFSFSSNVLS
Procedure: NK1-receptor binding affinity has been determined in vitro by the compounds' ability to displace [3H]-substance P (SP) from recombinant human NK1 receptors expressed in Chinese Hamster Ovary (CHO) cell membranes.
CHO cell membranes were prepared by using a modification of the method described by Dam T and Quirion R (Peptides, 7: 855–864, 1986). Thus ligand binding was performed in 0.4 mL of 50 mM HEPES, pH 7.4, containing 3 mM MnCl2, 0.02% BSA, 0.5 nM [^3H]-Substance P (30÷56 Ci/mmol, Amersham), a final membrane concentration of 25 μg of protein/ml, and the test compounds. The incubation proceeded at room temperature for 40 min. Non-specific binding was determined using excess of Substance P (1 μM) and represents about 6% of the total binding.
The affinity of the compound of the invention for NK1 receptor was determined using the NK1-receptor binding affinity method measuring in vitro by the compounds' ability to displace [3H]-substance P (SP) from recombinant human NK1 receptors expressed in Chinese Hamster Ovary (CHO) cell membranes. The affinity values are expressed as negative logarithm of the inhibition constant (Ki) of displacer ligands (pKi).

Row | Compound | Ki [nM]
1 | Cc1cc(F)ccc1[C@H]1CCNCCN1C(=O)N(C)Cc1cc(C(F)(F)F)cc(C(F)(F)F)c1 [Example 2, 7-(R)-(4-Fluoro-2-methyl-phenyl)-[1,4]-diazepane-1-carboxylic acid, (3,5-bis-trifluoromethyl-benzyl)-methylamide hydrochloride] | 0.0724
2 | Cc1cc(F)ccc1[C@H]1CCN(C)CCN1C(=O)N(C)Cc1cc(C(F)(F)F)cc(C(F)(F)F)c1 [Example 14, 7-(R)-(4-Fluoro-2-methyl-phenyl)-4-methyl-[1,4]-diazepane-1-carboxylic acid, (3,5-bis-trifluoromethyl-benzyl)-methylamide hydrochloride] | 0.0562
3 | Cc1cc(F)ccc1[C@H]1CNCCCN1C(=O)N(C)Cc1cc(Cl)cc(Cl)c1 [Example 5, 2-(S)-(4-Fluoro-2-methyl-phenyl)-[1,4]-diazepane-1-carboxylic acid, (3,5-dichloro-benzyl)-methylamide hydrochloride] | 0.0661
4 | Cc1cc(F)ccc1[C@H]1CCNCCN1C(=O)N(C)Cc1cc(Cl)cc(Cl)c1 [Example 6, 7-(R)-(4-Fluoro-2-methyl-phenyl)-[1,4]-diazepane-1-carboxylic acid, (3,5-dichloro-benzyl)-methylamide hydrochloride] | 0.0977
5 | CN(Cc1cc(C(F)(F)F)cc(C(F)(F)F)c1)C(=O)N1CCCNC[C@@H]1c1ccc(F)cc1 [Example 12a, 2-(S)-(4-Fluoro-phenyl)-[1,4]-diazepane-1-carboxylic acid, (3,5bis-trifluoromethyl-benzyl)-methylamide hydrochloride] | 0.501
6 | Cc1cc(F)ccc1[C@H]1CNCCCN1C(=O)N(C)[C@@H](C)c1cc(C(F)(F)F)cc(C(F)(F)F)c1 [Example 7, 2-(S)-(4-Fluoro-2-methyl-phenyl)-[1,4]-diazepane-1-carboxylic acid, [1-(S)-(3,5-bis-trifluoromethyl-phenyl)-ethyl]-methylamide hydrochloride] | 0.0479
7 | Cc1cc(F)ccc1[C@H]1CCN(C)CCN1C(=O)N(C)Cc1cc(Cl)cc(Cl)c1 [Example 13, 7-(R)-(4-Fluoro-2-methyl-phenyl)-4-methyl-[1,4]-diazepane-1-carboxylic acid, (3,5-dichloro-benzyl)-methylamide hydrochloride] | 0.295

These reach a lower Ki. Values come first.

Row | Ki [nM] | Compound
8 | 0.0457 | Cc1cc(F)ccc1[C@H]1CCNCCN1C(=O)N(C)[C@@H](C)c1cc(C(F)(F)F)cc(C(F)(F)F)c1 [Example 8, 7-(R)-(4-Fluoro-2-methyl-phenyl)-[1,4]-diazepane-1-carboxylic acid, [1-(S)-(3,5-bis-trifluoromethyl-phenyl)-ethyl]-methylamide hydrochloride]
9 | 0.0245 | Cc1cc(F)ccc1[C@H]1CNCCCN1C(=O)N(C)[C@H](C)c1cc(C(F)(F)F)cc(C(F)(F)F)c1 [Example 3, 2-(S)-(4-Fluoro-2-methyl-phenyl)-[1,4]-diazepane-1-carboxylic acid, [1-(R)-(3,5-bis-trifluoromethyl-phenyl)-ethyl]-methylamide hydrochloride]
10 | 0.0309 | Cc1cc(F)ccc1[C@H]1CCN(C)CCN1C(=O)N(C)[C@H](C)c1cc(C(F)(F)F)cc(C(F)(F)F)c1 [Example 15, 7-(R)-(4-Fluoro-2-methyl-phenyl)-4-methyl-[1,4]-diazepane-1-carboxylic acid, [1-(R)-(3,5-bis-trifluoromethyl-phenyl)-ethyl]-methylamide hydrochloride.]
11 | 0.0195 | Cc1cc(F)ccc1[C@H]1CCNCCN1C(=O)N(C)[C@H](C)c1cc(C(F)(F)F)cc(C(F)(F)F)c1 [Example 4, 7-(R)-(4-Fluoro-2-methyl-phenyl)-[1,4]-diazepane-1-carboxylic acid, [1-(R)-(3,5-bis-trifluoromethyl-phenyl)-ethyl]-methylamide hydrochloride]
12 | 0.0347 | Cc1cc(F)ccc1[C@H]1CNCCCN1C(=O)N(C)Cc1cc(C(F)(F)F)cc(C(F)(F)F)c1 [Example 1, 2-(S)-(4-Fluoro-2-methyl-phenyl)-[1,4]-diazepane-1-carboxylic acid, (3,5-bis-trifluoromethyl-benzyl)-methylamide hydrochloride]
